Data set [1] can be described thus: Specific surface area by mass of crystals by optical microscopy. The class given is physicochemical. From the text:
The specific surface area by mass (SSM) of crystals is the area developed by the crystals per unit of weight. The specific surface area by mass (SSM) is used to compare the dimensional characteristics of crystals of a suspension or a powder with those of another suspension or powder. This specific surface area can be measured by means of optical imaging on the basis of a volume (Vm) and the mean surface area (Sm) of hundreds of crystals (by measuring the length of the face thereof) and the density of the crystals (Dc):
The crystal size measurements were made using an optical microscope (Askania RME5) equipped with a digital camera (Nikon Coolpix 4500) with crystal measurement software supplied by Leica. For both test conditions, the length (L1) and thickness (L2) of 200 crystals were measured.
The specific surface area by mass of the crystals obtained at low supersaturation is 0.03 m^2/g whereas that of the crystals at high supersaturation is 0.06 m^2/g. This is calculated by taking the surface area and the volume of a parallelepiped having a length L1 and width and thickness L2.
The specific surface area by mass of the crystals is also estimated by measuring the length and thickness of 200 crystals of each sample according to the protocol described in example 1.

Data set [2] in a line: Thermal stability test: colour after heating at reflux at 200° C. for two hours. The settings on record: 90% solution of crystals.
Method: The analyses conducted on the 90% crystal solutions are a measurement of the colour at ambient temperature (APHA scale in Hazen units) and a thermal stability test consisting of measuring the colour (APHA scale in Hazen units) of the substance after heating at reflux at a temperature of 200° C. for two hours.
Data set [3] can be described thus: Secondary nucleation temperature Tn of lactic acid solution. It counts as physicochemical. As for the experimental part: We measured the secondary nucleation temperature for more reproducibility. For this purpose, a few large crystals (three or four) are introduced into the slightly subcooled solution (26° C.). These crystals are used to initiate nucleation. To obtain nucleation, the solution is cooled according to a cooling gradient of 10° C./hr. The nucleation temperature is measured when the first crystal (excluding crystals in solution) appears.

In the case of `CC(O)C(=O)O` (centres unmarked) [lactic acid, hydroxy-2-propanoic acid], the “Specific surface area by mass” value in data set [1] (Example 1: crystals obtained at high supersaturation Ds^c=87.5%) stood at 0.06 m^2/g; in data set [1] (Example 1: crystals obtained at low supersaturation Ds^c=12.5%) it was 0.03 m^2/g; in data set [1] (Example 2: crystals, supersaturation 14%), 0.03 m^2/g; in data set [1] (Example 2: crystals, supersaturation 50%), 0.045 m^2/g; in data set [1] (Example 2: crystals, supersaturation 86%) it was 0.07 m^2/g. Further, the “Colour after heating (200° C., 2 hrs), after drying” value in data set [2] (Example 2: supersaturation 14%) is 500 Hazen; in data set [2] (Example 2: supersaturation 50%) it was 900 Hazen; in data set [2] (Example 2: supersaturation 86%), 1328 Hazen. In addition, the “Colour after heating (200° C., 2 hrs), after passage on Noritt ROX activated carbon (20 g/l)” value in data set [2] (Example 2: supersaturation 14%) is listed as 25 Hazen; in data set [2] (Example 2: supersaturation 50%) it was 45 Hazen. Moreover, the “Colour after heating (200° C., 2 hrs), after washing (25% of a 90% lactic acid solution, 4° C.)” value in data set [2] (Example 2: supersaturation 14%) amounted to 49 Hazen; in data set [2] (Example 2: supersaturation 50%), 88 Hazen; in data set [2] (Example 2: supersaturation 86%), 480 Hazen. In addition, in data set [3] (Example 1: lactic acid concentration 92%, colour 2000 Hazen, relative monomer content 96%), the secondary nucleation temperature is 18 °C. The Tn in data set [3] (Example 2: lactic acid concentration 90%, colour 1800 Hazen, relative monomer content 94%) amounted to 18 °C; in data set [3] (Example 4: lactic acid concentration 95.4%, colour 1900 Hazen, relative monomer content 91%), 33 °C; in data set [3] (total acidity 89%, free acidity 78.7%, relative monomer content 77%) it was 8 °C; in data set [3] (total acidity 89%, free acidity 84%, relative monomer content 89%) it was 15 °C; in data set [3] (total acidity 89%, free acidity 87.6%, relative monomer content 97.5%) it was 22 °C; in data set [3] (total acidity 89%, free acidity 88.2%, relative monomer content 99%), 23 °C.

For the origin of these results see patent US20110319660A1 (Galactic SA, priority 2008, published 2011).
